Source: the NIST ThermoML archive (doi:10.1021/acs.jced.8b00513)
Numbers after ± are expanded uncertainties.

Settings: 101.33 kPa, Liquid, Vibrating tube method

mass density (323.15 K): 988.035 ± 1 kg/m3 | mass density (328.15 K): 985.693 ± 1 kg/m3 | mass density (333.15 K): 983.196 ± 0.98 kg/m3 | mass density (338.15 K): 980.551 ± 0.98 kg/m3 | mass density (343.15 K): 977.765 ± 0.98 kg/m3
SMILES: O [water]
